{"source": "patent US9005580B2", "about": "“Treatment of renal cell carcinoma” (priority 2010, dated 2015)", "key": {"[1]": {"conditions": "compared to BCNU; cited from earlier work"}, "[2]": {"tested_on": "xenografts in nude mice", "conditions": "in some cases; cited from earlier work"}, "[3]": {"tested_on": "Sprague-Dawley rats", "conditions": "corresponding amounts of unconjugated Orellanine, within four days; cited from earlier work"}, "[4]": {"tested_on": "human renal cancer cells", "conditions": "cells derived from a primary tumor or from metastatic tumor tissue; cited from earlier work"}, "[5]": {"tested_on": "human renal cell carcinomas (SKRC-7, 786-0)", "assay_type": "cell-based"}}}
{"compound": "O=NN(CCCl)C(=O)NCCO", "note": "[HECNU, 1-(2-chloroethyl)-1-nitroso-3-(2-hydroxyethyl)urea]", "values": [{"measurement": "water solubility", "setting": "[1]", "value": "improved water solubility"}]}
{"compound": "Cc1cc(N(CCOS(C)(=O)=O)CCOS(C)(=O)=O)ccc1C=O", "note": "[NSC-281612]", "values": [{"measurement": "effect on tumor mass", "setting": "[2]", "value": "apparently complete eradication of the tumor mass"}]}
{"compound": "[O-][n+]1ccc(O)c(O)c1-c1c(O)c(O)cc[n+]1[O-]", "note": "[Orellanine, 3,3′,4,4′-tetrahydroxy-2,2′-bipyridine-N,N′-dioxide]", "values": [{"measurement": "loss of GFR", "setting": "[3]", "value": "almost total loss of GFR"}, {"measurement": "killing of renal cancer cells", "setting": "[4]", "value": "kills them with great efficiency"}, {"measurement": "correlation between exposure concentration and fraction of cells that die", "setting": "[5]", "value": "clear correlation"}, {"measurement": "delay between administration and onset of cell death", "setting": "[5]", "value": 48, "unit": "h"}]}
